Test results as given in patent US9446039B2, “Aminoheteroaryl compounds as MTH1 inhibitors” (CEMM—FORSCHUNGSZENTRUM FÜR MOLEKULARE MEDIZIN GMBH, priority 2012, dated 2016).

Columns and labels:
Type in all cases: binding
[1] = target: SW480 colon carcinoma cells lysate proteins (Homo sapiens, UniProt P37802); settings: PreyGene TAGLN2
[2] = target: T1, SW480 colon carcinoma cells lysate proteins (Homo sapiens, UniProt P37837); settings: PreyGene TALDO1
T1 sequence (P37837 1-337): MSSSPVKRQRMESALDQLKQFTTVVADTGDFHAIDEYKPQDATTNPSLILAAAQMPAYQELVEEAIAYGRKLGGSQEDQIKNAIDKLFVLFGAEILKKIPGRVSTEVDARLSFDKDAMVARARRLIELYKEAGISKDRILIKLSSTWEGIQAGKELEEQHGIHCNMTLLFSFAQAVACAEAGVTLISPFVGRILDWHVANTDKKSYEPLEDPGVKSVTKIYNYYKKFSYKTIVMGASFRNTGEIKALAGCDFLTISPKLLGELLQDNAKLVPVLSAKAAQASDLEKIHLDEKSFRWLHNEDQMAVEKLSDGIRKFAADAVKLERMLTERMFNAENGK

[3] = target: T2, SW480 colon carcinoma cells lysate proteins (Homo sapiens, UniProt P55209); settings: PreyGene NAP1L1
T2 sequence (P55209 1-391): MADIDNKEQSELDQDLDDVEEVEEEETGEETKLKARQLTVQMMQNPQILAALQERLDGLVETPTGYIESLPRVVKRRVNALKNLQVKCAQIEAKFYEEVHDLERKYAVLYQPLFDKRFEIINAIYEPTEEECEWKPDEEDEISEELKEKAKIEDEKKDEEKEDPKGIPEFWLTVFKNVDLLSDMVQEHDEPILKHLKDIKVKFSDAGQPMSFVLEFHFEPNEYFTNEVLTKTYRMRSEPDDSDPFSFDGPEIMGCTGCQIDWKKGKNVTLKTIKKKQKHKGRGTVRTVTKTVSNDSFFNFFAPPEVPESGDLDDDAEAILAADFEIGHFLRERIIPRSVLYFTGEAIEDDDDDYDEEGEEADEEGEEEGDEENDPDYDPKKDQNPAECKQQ

[4] = target: T3, SW480 colon carcinoma cells lysate proteins (Homo sapiens, UniProt Q15691); settings: PreyGene MAPRE1
T3 sequence (Q15691 1-268): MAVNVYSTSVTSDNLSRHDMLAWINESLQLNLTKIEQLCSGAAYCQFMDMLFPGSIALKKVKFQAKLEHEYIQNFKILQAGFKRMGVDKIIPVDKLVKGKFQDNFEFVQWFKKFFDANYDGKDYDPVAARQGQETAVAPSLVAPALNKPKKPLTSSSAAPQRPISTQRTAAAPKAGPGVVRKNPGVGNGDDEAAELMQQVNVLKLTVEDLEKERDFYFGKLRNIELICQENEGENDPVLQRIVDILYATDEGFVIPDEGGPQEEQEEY

[5] = target: SW480 colon carcinoma cells lysate proteins (Homo sapiens, UniProt Q16658); settings: PreyGene FSCN1
[6] = target: T4, SW480 colon carcinoma cells lysate proteins (Homo sapiens, UniProt Q9NSD9); settings: PreyGene FARSB
T4 sequence (Q9NSD9 1-589): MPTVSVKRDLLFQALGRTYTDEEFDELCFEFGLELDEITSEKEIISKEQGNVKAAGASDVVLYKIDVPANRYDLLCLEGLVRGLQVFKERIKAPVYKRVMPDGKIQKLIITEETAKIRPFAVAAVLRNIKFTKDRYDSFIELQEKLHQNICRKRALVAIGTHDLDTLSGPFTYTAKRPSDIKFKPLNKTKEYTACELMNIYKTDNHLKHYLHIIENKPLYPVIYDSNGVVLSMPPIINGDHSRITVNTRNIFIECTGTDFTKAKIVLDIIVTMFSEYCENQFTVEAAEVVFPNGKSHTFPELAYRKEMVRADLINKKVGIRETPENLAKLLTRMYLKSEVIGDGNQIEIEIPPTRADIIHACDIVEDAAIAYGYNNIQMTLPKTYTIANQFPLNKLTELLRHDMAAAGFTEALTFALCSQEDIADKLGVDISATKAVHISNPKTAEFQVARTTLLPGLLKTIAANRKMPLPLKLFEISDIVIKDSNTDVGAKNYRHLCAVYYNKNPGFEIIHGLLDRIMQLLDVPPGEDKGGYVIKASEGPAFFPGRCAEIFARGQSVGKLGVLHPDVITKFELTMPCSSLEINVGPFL

[7] = target: SW480 colon carcinoma cells lysate proteins (Homo sapiens, UniProt Q9UBR2); settings: PreyGene CTSZ
Sequence of SW480 colon carcinoma cells lysate proteins (Homo sapiens, UniProt Q9UBR2) (Q9UBR2 62-303): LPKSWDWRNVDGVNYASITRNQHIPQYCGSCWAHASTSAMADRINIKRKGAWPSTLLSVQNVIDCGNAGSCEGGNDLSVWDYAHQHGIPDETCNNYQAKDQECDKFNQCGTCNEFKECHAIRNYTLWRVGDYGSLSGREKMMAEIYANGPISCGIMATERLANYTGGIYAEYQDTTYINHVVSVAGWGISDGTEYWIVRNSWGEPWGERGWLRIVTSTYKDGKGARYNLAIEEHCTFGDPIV

[8] = target: SW480 colon carcinoma cells lysate proteins (Homo sapiens, UniProt Q9Y230); settings: PreyGene RUVBL2
Sequence of SW480 colon carcinoma cells lysate proteins (Homo sapiens, UniProt Q9Y230) (Q9Y230 whole entry): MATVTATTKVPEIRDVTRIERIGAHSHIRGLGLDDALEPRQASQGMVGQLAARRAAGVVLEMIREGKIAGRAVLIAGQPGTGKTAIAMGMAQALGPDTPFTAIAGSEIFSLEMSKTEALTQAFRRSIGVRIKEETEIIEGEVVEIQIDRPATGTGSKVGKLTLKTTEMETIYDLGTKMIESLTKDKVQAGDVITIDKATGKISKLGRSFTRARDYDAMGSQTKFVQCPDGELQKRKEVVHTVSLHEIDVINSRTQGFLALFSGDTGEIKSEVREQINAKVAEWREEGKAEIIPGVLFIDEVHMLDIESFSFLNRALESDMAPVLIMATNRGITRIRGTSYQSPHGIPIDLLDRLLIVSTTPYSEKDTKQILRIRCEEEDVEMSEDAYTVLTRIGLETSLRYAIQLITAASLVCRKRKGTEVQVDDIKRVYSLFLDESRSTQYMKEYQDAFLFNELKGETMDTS

[9] = target: SW480 colon carcinoma cells lysate proteins (Homo sapiens, UniProt Q9Y265); settings: PreyGene RUVBL1
Sequence of SW480 colon carcinoma cells lysate proteins (Homo sapiens, UniProt Q9Y265) (Q9Y265 whole entry): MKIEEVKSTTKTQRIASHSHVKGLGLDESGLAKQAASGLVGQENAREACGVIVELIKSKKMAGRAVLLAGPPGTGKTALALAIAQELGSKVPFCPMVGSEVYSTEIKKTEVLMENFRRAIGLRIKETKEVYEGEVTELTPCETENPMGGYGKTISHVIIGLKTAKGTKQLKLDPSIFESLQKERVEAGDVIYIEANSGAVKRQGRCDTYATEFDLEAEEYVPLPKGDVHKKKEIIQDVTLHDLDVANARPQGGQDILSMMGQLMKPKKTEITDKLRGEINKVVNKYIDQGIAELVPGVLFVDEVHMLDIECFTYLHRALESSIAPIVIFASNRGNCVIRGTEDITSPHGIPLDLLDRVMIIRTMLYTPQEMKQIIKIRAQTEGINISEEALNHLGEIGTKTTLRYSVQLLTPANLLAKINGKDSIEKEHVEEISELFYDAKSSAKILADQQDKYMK

Sequence of SW480 colon carcinoma cells lysate proteins (Homo sapiens, UniProt P37802) (P37802 whole entry): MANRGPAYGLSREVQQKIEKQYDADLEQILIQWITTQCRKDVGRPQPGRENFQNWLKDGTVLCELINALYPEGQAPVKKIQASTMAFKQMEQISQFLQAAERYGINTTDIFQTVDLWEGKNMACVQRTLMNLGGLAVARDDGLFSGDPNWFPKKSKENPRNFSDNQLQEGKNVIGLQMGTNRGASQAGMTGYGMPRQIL

C[C@H](Oc1cc(-c2cnn(C3CCNCC3)c2)cnc1N)c1c(Cl)ccc(F)c1Cl [(5)-crizotinib]
0.4044: AvgP [5]
0.4297: AvgP [8]
6: SC.Exp. 1-1 [1] | Sum (SC.Exp.) [8]
2: SC.Exp. 1-1 [2] | SC.Exp. 1-2 [2] | SC.Exp. 1-2 [3] | SC.Exp. 1-1 [4] | SC.Exp. 1-1 [5] | SC.Exp. 1-2 [6] | SC.Exp. 1-1 [7] | SC.Exp. 1-2 [7] | SC.Exp. 1-1 [9]
1: SC.Exp. 1-1 [3]
0.1795: AvgP [1]
11: Sum (SC.Exp.) [1]
0.3864: AvgP [9]
4: Sum (SC.Exp.) [2] | Sum (SC.Exp.) [7]
0.3413: AvgP [6]
0.3217: AvgP [7]
5: SC.Exp. 1-2 [1] | Sum (SC.Exp.) [4] | Sum (SC.Exp.) [5] | Sum (SC.Exp.) [6] | Sum (SC.Exp.) [9]
0: SC.Exp. 2-1 [1] | SC.Exp. 2-2 [1] | SC.Exp. 2-1 [2] | SC.Exp. 2-2 [2] | SC.Exp. 2-1 [3] | SC.Exp. 2-2 [3] | SC.Exp. 2-1 [4] | SC.Exp. 2-2 [4] | SC.Exp. 2-1 [5] | SC.Exp. 2-2 [5] | SC.Exp. 2-1 [6] | SC.Exp. 2-2 [6] | SC.Exp. 2-1 [7] | SC.Exp. 2-2 [7] | SC.Exp. 2-1 [8] | SC.Exp. 2-2 [8] | SC.Exp. 2-1 [9] | SC.Exp. 2-2 [9]
0.3739: AvgP [2]
0.4084: AvgP [4]
0.2244: AvgP [3]
3: Sum (SC.Exp.) [3] | SC.Exp. 1-2 [4] | SC.Exp. 1-2 [5] | SC.Exp. 1-1 [6] | SC.Exp. 1-1 [8] | SC.Exp. 1-2 [8] | SC.Exp. 1-2 [9]
